Source: patent US11812753B2, “Solvent compositions promoting plant growth” (priority 2020, dated 2023)
Read-outs that look alike come from different tables or passages of the source.

Tests used:
[1] = from SDS of each solvent, cited from earlier work
[2] = Active ingredient loading of PGR components in solvent compositions by HPLC; format: physicochemical
Source text: To understand if changing the active component loading rate would impact the biological performance of the PGR compositions, two solvent compositions, methoxy propanol and tetrahydrofuryl alcohol, were mixed with various PGR compositions (4×) selected for their favorable solubility properties, curing properties, and compatibility with Rhizobia. Propylene glycol was again included as a control sample, and each composition was mixed with BHT (4×). Citric acid was excluded from all samples. The weight percentage of each PGR component mixed with each solvent composition is shown below in Table 7.
The HPLC was performed using an Agilent 1260 device with a diode-array detector for active component quantification.
[…]. As shown, the deviation was less than 1% for each composition.

[3] = Two-week stability test of solvent / Warden CX mixtures (viscosity, density); format: physicochemical; details: mixture with Warden CX; for Post: Density / Post: Viscosity: after two weeks at 54° C., 4° C. and/or −10° C.; for Pre: Viscosity: before two-week stability test
Protocol: The same seven solvent compositions were then evaluated for their compatibility with Warden® CX, which is a combination of fungicide and insecticide (containing a proprietary solvent) formulated for soybean seed treatment and sold by Winfield® United. Specifically, 0.5 fl. oz./cwt. of each experimental solvent was added to 50 mL of Warden® CX. […] The mixtures were then evaluated for stability by placing the samples at 54° C., 4° C. and/or at −10° C. for a two-week period. Viscosity levels were measured before and after the two-week stability test, along with the post-test density levels, and the results shown below in Table 6.

[4] = Viscosity of solvent compositions (modular compact rheometer); format: physicochemical; details: solvent mixed with 0.1 wt % BHT and 4x PGR composition; 25° C.
Protocol: (§1) Propylene glycol was used as a control. The evaluated solvents, along with the mass of each PGR component and BHT, are shown below in Table 4. The density and viscosity of the solvent compositions were then determined. The density measurements were obtained using a DMA™ 4500, which was calibrated using 20° C. DI water. Viscosity was determined using a modular compact rheometer. Viscosity levels were measured at 25° C.

[5] = Density of solvent compositions (DMA 4500); format: physicochemical; details: solvent mixed with 0.1 wt % BHT and 4x PGR composition
Protocol: as §1

Compound | Boiling Point [1] | Density [1] | Flash Point [1] | Post: Density [3] | Post: Viscosity [3] | Pre: Viscosity [3] | Solubility [1] | other results
COCC(C)O (centres unmarked) [1-methoxy-2-propanol] | 118 C. ° | 0.916 g/mL | 34 C. ° | 1.0440 g/mL | 106.18 cPa | 1764.63 cPa | – | Aux. by HPLC ([2]; 1st composition of Table 7, auxin added 0.6596%): 0.674%; Cyt. by HPLC ([2]; 1st composition of Table 7, cytokinin added 0.0614%): 0.072%; Gib. by HPLC ([2]; 1st composition of Table 7, gibberellin added 0.0460%): 0.046%; Aux. by HPLC ([2]; 2nd composition of Table 7, auxin added 0.6136%): 0.630%; Cyt. by HPLC ([2]; 2nd composition of Table 7, cytokinin added 0.1074%): 0.126%; Gib. by HPLC ([2]; 2nd composition of Table 7, gibberellin added 0.0460%): 0.045%; Aux. by HPLC ([2]; 3rd composition of Table 7, auxin added 0.5215%): 0.531%; Cyt. by HPLC ([2]; 3rd composition of Table 7, cytokinin added 0.1534%): 0.178%; Gib. by HPLC ([2]; 3rd composition of Table 7, gibberellin added 0.0920%): 0.088%; Aux. by HPLC ([2]; 4th composition of Table 7, auxin added 0.4985%): 0.502%; Cyt. by HPLC ([2]; 4th composition of Table 7, cytokinin added 0.1994%): 0.235%; Gib. by HPLC ([2]; 4th composition of Table 7, gibberellin added 0.0690%): 0.069%; Aux. by HPLC ([2]; 5th composition of Table 7, auxin added 0.5675%): 0.579%; Cyt. by HPLC ([2]; 5th composition of Table 7, cytokinin added 0.1074%): 0.130%; Gib. by HPLC ([2]; 5th composition of Table 7, gibberellin added 0.0920%): 0.089%; change of viscosity over the two-week period [3]: decreasing the most
CCCCCOC(C)=O [Amyl Acetate] | 149 C. ° | 0.87 g/mL | 40 C. ° | – | – | – | Insoluble | Viscosity [1]: 1.58 cP
CCCCOC(=O)C(C)O (centres unmarked) [Butyl lactate] | 186 C. ° | 0.984 g/mL | 69 C. ° | 1.1067 g/mL | 387.57 cPa | 901.94 cPa | Slightly | Viscosity [4]: 5.0736 cPa
CCCCOCCOCCO [Diethylene glycol butyl ether] | 228 C. ° | 0.953 g/mL | 99 C. ° | 1.0486 g/mL | 45.06 cPa | 112.48 cPa | Miscible | Viscosity [4]: 7.7338 cPa
CCOC(C)=O [Ethyl acetate] | 77 C. ° | – | −4.4 C. ° | – | – | – | Miscible | –
CCCCOCCO [Ethylene glycol butyl ether, 2-butoxyl ethanol] | 171 C. ° | 0.902 g/mL | 67 C. ° | 1.0263 g/mL | 69.69 cPa | 138.49 cPa | – | –
CC(=O)OCC(COC(C)=O)OC(C)=O [Glyceryl triacetate] | 259 C. ° | 1.158 g/mL | 148 C. ° | – | – | – | Soluble | Solubility ([1]; listed as glyceryl triacetate): soluble
CCCCC(CC)COC(=O)C(C)O (centres unmarked) [Lactic acid, 2-ethylhexyl ester] | 122 C. ° | 1.2 g/mL | – | – | – | – | – | –
CC(=O)OCCCCCCC=O [Oxo-heptyl acetate] | 192 C. ° | 0.886 g/mL | 43 C. ° | – | – | – | Slightly | –
CC(O)CO (centres unmarked) [Propylene Glycol, reference compound] | 205 C. ° | 1.12 g/mL | 138 C. ° | – | – | – | Soluble | Solubility ([1]; listed as propylene glycol): soluble
OCC1CCCO1 (centres unmarked) [Tetrahydrofurfyl Alcohol] | 178 C. ° | 1.054 g/mL | 75 C. ° | 1.0825 g/mL | 150.59 cPa | 962.75 cPa | Miscible | Viscosity [4]: 5.4046 cPa; Aux. by HPLC ([2]; 6th composition of Table 7, auxin added 0.4958%): 0.497%; Cyt. by HPLC ([2]; 6th composition of Table 7, cytokinin added 0.094%): 0.108%; Gib. by HPLC ([2]; 6th composition of Table 7, gibberellin added 0.0804%): 0.081%; Density [5]: 1.0548 g/mL
Ethyl hexanol | 185 C. ° | 0.833 g/mL | 75 C. ° | – | – | – | – | –
